{"source": "patent US20130196900A1", "about": "“ENHANCEMENT OF INNATE RESISTANCE TO INFECTION” (priority 2007, published 2013)", "key": {"[1]": {"test_system": "C. burnetii", "conditions": "24 hours"}, "[2]": {"test_system": "host macrophages", "conditions": "24 hours"}, "[3]": {"test_system": "C. burnetii (Phase II Nine Mile strain)", "assay_type": "cell-based", "conditions": "96 hours"}, "[4]": {"test_system": "p38 map kinase", "assay": "p38 MAP kinase Western blot in Monomac-1 cells", "assay_type": "cell-based, human", "conditions": "50 μM securinine"}, "[5]": {"test_system": "TLR-1 to 10", "assay": "TLR activation assay (THP1-Blue-CD14/SEAP)", "assay_type": "cell-based", "conditions": "securinine 50 or 25 μM, 24 hours"}, "[6]": {"test_system": "Phase II C. burnetii", "assay_type": "cell-based", "conditions": "96 hours"}, "[7]": {"test_system": "MonoMac-1 cells", "assay": "IL-8 assay in MonoMac-1 cells (ELISA)", "assay_type": "cell-based, human", "conditions": "securinine 25 μM vs carrier/buffer control"}, "[8]": {"conditions": "concentrations as high as 10 mg/kg or greater i.p.; cited from earlier work"}, "[9]": {"test_system": "cathepsin D", "assay_type": "cell-based, mouse"}, "[10]": {"test_system": "Phase II C. burnetii", "assay_type": "in vivo"}, "[11]": {"test_system": "C. burnetii (Phase II Nine Mile strain)", "assay_type": "cell-based", "conditions": "96 hours", "remark": "listed apart in the source"}, "[12]": {"test_system": "peritoneal cells", "assay": "Analysis of peritoneal cells after i.p. injection (FACS)", "assay_type": "in vivo, Balb/c mice", "conditions": "peritoneum, data not shown"}}, "note": "“And” between values parts separate entries of the source, which are not always exact repeats. Equal entries are not always repeated. Where two headings read alike, the source gives them in different places.", "data": [{"compound": "O=C1C=C2C=C[C@@H]3C[C@@]2(O1)[C@H]1CCCCN31", "note": "[securinine]", "values": [{"measurement": "direct killing of C. burnetii", "setting": "[1]", "value": "Neither of the compounds, at concentrations that induced killing in vitro and in vivo, induced direct killing"}, {"measurement": "direct killing of host cells", "setting": "[2]", "value": "Neither of the compounds, at concentrations that induced killing in vitro and in vivo, induced direct killing"}, {"measurement": "C. burnetii killing", "setting": "[3]", "value": "induced killing of C. burnetii"}, {"measurement": "p38Map kinase activity (phospho-p38)", "setting": "[4]", "value": "induces p38Map kinase activity"}, {"measurement": "TLR-1 to 10 signaling (SEAP release)", "setting": "[5]", "value": "not detected"}, {"measurement": "percent C. burnetii killing", "setting": "[6]", "value": "> 80", "unit": "%"}, {"measurement": "IL-8 secretion", "setting": "[7]", "value": "potent inducer of IL-8 secretion"}, {"measurement": "toxicity", "setting": "[8]", "value": "without any obvious toxicity"}, {"measurement": "cathepsin D expression in infected macrophages", "setting": "[9]", "value": "induced cathepsin D expression"}, {"measurement": "C. burnetii burden (viable bacterial counts)", "setting": "[10]; 96 hr", "value": "significantly (P value <0.05) lower"}, {"measurement": "spleen weights", "setting": "[10]; 96 hr", "value": "significantly (P value <0.05) lower"}, {"measurement": "reduction in C. burnetii, PCR assay for bacterial DNA", "setting": "[10]; in vivo, ip", "value": 10, "unit": "fold"}, {"measurement": "reduction in C. burnetii, viability assay", "setting": "[10]; in vivo, ip", "value": 10, "unit": "fold"}, {"measurement": "C. burnetii killing", "setting": "[11]", "value": "induced killing of C. burnetii"}]}, {"compound": "Pam3CGDPKHPKSF [FSL-1]", "values": [{"measurement": "direct killing of C. burnetii", "setting": "[1]", "value": "Neither of the compounds, at concentrations that induced killing in vitro and in vivo, induced direct killing"}, {"measurement": "direct killing of host cells", "setting": "[2]", "value": "Neither of the compounds, at concentrations that induced killing in vitro and in vivo, induced direct killing"}, {"measurement": "neutrophil and macrophage activation: CD11b and Ly6C expression", "setting": "[12]", "value": "increased"}, {"measurement": "bacterial burden by PCR, lower than buffer alone", "setting": "[10]; in vivo", "value": "> 10", "unit": "fold"}, {"measurement": "bacterial counts by PCR", "setting": "[10]; in vivo", "value": "reduced bacterial counts"}, {"measurement": "efficiency in inducing enhanced C. burnetii clearance, share of animals", "setting": "[10]; in vivo", "value": "61% and 100%"}, {"measurement": "mice showing a reduction of C. burnetii", "setting": "[10]; in vivo", "value": 11, "unit": "mice"}, {"measurement": "mice with lower spleen weight and bacterial burden", "setting": "[10]; in vivo", "value": "5 out of 5"}, {"measurement": "spleen weight", "setting": "[10]; in vivo", "value": "significantly lower"}, {"measurement": "splenomegaly (spleen weight)", "setting": "[10]; in vivo", "value": "reduced the splenomegaly"}, {"measurement": "total C. burnetii DNA from spleen and liver", "setting": "[10]; in vivo", "value": "lower"}, {"measurement": "viable bacterial counts in the spleen (bacLight FACS assay)", "setting": "[10]; in vivo", "value": "enhanced clearance of C. burnetii"}, {"measurement": "spleen C. burnetii numbers (PCR quantification of bacterial DNA)", "setting": "[10]; in vivo, ip", "value": "reduced"}, {"measurement": "C. burnetii content of infected cells", "setting": "[11]", "value": "less C. burnetii"}]}, {"compound": "lipopolysaccharide [LPS]", "values": [{"measurement": "neutrophil and macrophage activation: CD11b and Ly6C expression", "setting": "[12]", "value": "increased"}, {"measurement": "benefit on C. burnetii infection in vivo", "setting": "[10]; in vivo", "value": "No benefit"}, {"measurement": "spleen C. burnetii numbers (PCR quantification of bacterial DNA)", "setting": "[10]; in vivo, ip", "value": "did not have an effect"}, {"measurement": "C. burnetii content of infected cells", "setting": "[11]", "value": "less C. burnetii"}]}]}
